Experimental data as given in US5117052A, “Physiologically active substances, benastatins A and B, and production and use thereof” (priority 1990, dated 1992).
Converted amounts (≈) assume the structure as drawn.

How the values were obtained:
glutathione transferase = molecular target: T1, glutathione transferase (Rattus norvegicus, UniProt P04905); assay: Glutathione transferase inhibition activity (3,4-dichloronitrobenzene/glutathione, absorption at 345 nm); type: biochemical
T1 construct: obtained from a homogenate of rat liver; from tissue; host or cells: rat liver homogenate, partially purified by DEAE-cellulose column and ammonium sulfate salting-out
T1 sequence (P04905 2-218 limits assumed): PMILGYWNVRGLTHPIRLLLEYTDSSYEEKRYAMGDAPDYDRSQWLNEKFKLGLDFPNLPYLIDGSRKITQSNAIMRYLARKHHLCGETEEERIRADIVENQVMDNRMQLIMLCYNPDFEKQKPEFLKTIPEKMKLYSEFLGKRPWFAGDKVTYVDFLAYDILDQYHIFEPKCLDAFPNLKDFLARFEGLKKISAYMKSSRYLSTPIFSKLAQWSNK
Experimental: The glutathione transferase inhibition activity was determined by a modified method based on the known method described in Biochemical and Biophysical Research Communications, 112, 980-985 (1983).
A test tube was charged with a solution mixture consisting of (a) 0.1 ml of 90 mM glutathione (reduction type), (b) 0.05 ml of 20 mM 3,4-dichloronitrobenzene, (c) 1.7 ml of 0.1M potassium phosphate buffer solution (pH 7.4) and (d) 0.1 ml of an aqueous solution containing the test compound. The solution mixture was heated to 37° C. for 3 minutes, and admixed with 0.05 ml of a glutathione transferase solution to effect a reaction at 37° C. for 30 minutes. The glutathione transferase solution employed was one which had been obtained from a homogenate of rat liver and which had been patially refined by means of a DEAE-cellulose column and of salting out-operation with ammonium sulfate.
After the completion of the reaction, the sample was measured for the light absorption (a) at 345 nm. At the same time, a control sample which was free of the test compound and which contained only the buffer solution was measured for the light absorption (b) at 345 nm.
The glutathione transferase inhibition activity was determined according to the formula: […]
IC50, which is the concentration of a test compound required for 50% inhibition, was recorded.

[1] = tested on: spleen cells (LPS lymphocyte blast formation reaction); assay: Suppression of LPS-induced lymphocyte blast formation, [3H]-thymidine uptake (Test 2); type: cell-based, BALB/c mouse; conditions: Mus musculus, LPS 100 μg/ml, 72 hours, read-out: IC50, 50% suppression of lymphocyte blast formation (LPS)
Experimental: (§1) A pharmacological test was made about a suppression activity of benastatins on the lymphocyte blast formation reaction.
(§2) In this test, use was made of an RPMI 1640 culture medium supplemented with 20% bovin fetus serum, 25 mM Hepes buffer, 100 μg/ml streptomycin and 100 units/ml penicillin G. The cultivation was effected by using microplate (COSTAR) with a flat bottom and with 96 wells. As mitogens, use was made of lipopolysaccharide (LPS) and concanavalin A (Con A) at concentrations of 100 and 5 μg/ml, respectively.
(§3) After spleen cells were taken out from BALB/c mouse (female, 25 weeks old), a unicellular suspension of the spleen cells was prepared, and then subjected to a hyper shock treatment to remove erythrocytes therefrom.
(§4) Each well was charged with 0.2 ml of a sample which contained 2×10^5 spleen cells and the test compound at a predetermined concentration. The cultivation was conducted for 72 hours. Before 8 hours from the completion of cultivation, each well was further charged with 37 KBq of [^3 H]-thymidine to determine the amount of the thymidine taken into the cells. […]

[2] = tested on: spleen cells (Con A lymphocyte blast formation reaction); assay: Suppression of Con A-induced lymphocyte blast formation, [3H]-thymidine uptake (Test 2); type: cell-based, BALB/c mouse; conditions: Mus musculus, Con A 5 μg/ml, 72 hours, read-out: IC50, 50% suppression of lymphocyte blast formation (Con A)
Experimental: as §1, §2, §3, §4

mouse = assay: Toxicity on administration to the abdominal cavity; type: in vivo; conditions: 100 mg/kg
Description: Benastatins A and B were each administered to the abdominal cavity of a mouse to examine the toxicity thereof.

[3] = tested on: Bacillus cereus ATCC10702; assay: Agar dilution assay, minimum growth inhibition concentration; type: cell-based
Experimental: (§5) The minimum of microorganism growth inhibition concentrations of benastatins A and B were determined for various bacteria, east and fungi according to a conventional agar dilution assay method. It will be seen from Table 1 that benastatins A and B have a satisfactory antimicrobial activity, particularly against gram-positive bacteria, etc.

[4] = tested on: Bacillus subtilis NRRL B-558; assay: as above; type: cell-based; conditions: NRRLB558
Experimental: as §5

Cochliobolus miyabeanus = assay: as above; type: cell-based; conditions: Bipolaris oryzae
Experimental: as §5

[5] = tested on: Corynebacterium bovis 1810; assay: as above; type: cell-based
Experimental: as §5

[6] = tested on: Cryptococcus neoformans F-10; assay: as above; type: cell-based; conditions: F10
Experimental: as §5

Micrococcus luteus FDA16 = assay: as above; type: cell-based
Experimental: as §5

[7] = tested on: Staphylococcus aureus MS9610; assay: as above; type: cell-based
Experimental: as §5

[8] = tested on: Staphylococcus aureus Smith; assay: as above; type: cell-based
Experimental: as §5

[9] = tested on: Staphylococcus aureus No. 5 (MRSA); assay: as above; type: cell-based; conditions: read-out: Minimum growth-inhibition concentration
[10] = tested on: Staphylococcus aureus No. 17 (MRSA); assay: as above; type: cell-based; conditions: read-out: Minimum growth-inhibition concentration
Escherichia coli NIHJ = assay: as above; type: cell-based; conditions: Escherichia coli NIHJ; read-out: Minimum growth-inhibition concentration
[11] = tested on: Shigella dysenteriae JS11910; assay: as above; type: cell-based; conditions: JS11910, read-out: Minimum growth-inhibition concentration
Salmonella typhi T-63 = assay: as above; type: cell-based; conditions: Salmonella enterica
Proteus rettgeri GN311 = assay: as above; type: cell-based; conditions: Providencia rettgeri; Proteus rettgeri GN311; read-out: Minimum growth-inhibition concentration
[12] = tested on: Pseudomanas aeruginosa A3; assay: as above; type: cell-based; conditions: Pseudomanas aeruginosa A3; read-out: Minimum growth-inhibition concentration
[13] = tested on: Klebsiella pneumoniae PCI602; assay: as above; type: cell-based; conditions: Klebsiella pneumoniae PCI602; read-out: Minimum growth-inhibition concentration
[14] = tested on: Mycabacterium smegmatis ATCC607; assay: as above; type: cell-based; conditions: Mycabacterium smegmatis ATCC607; read-out: Minimum growth-inhibition concentration
Candida tropicalis F-1 = assay: as above; type: cell-based; conditions: F1; Candida tropicalis F-1; read-out: Minimum growth-inhibition concentration
[15] = tested on: Saccharomyces cerevisiae F-7; assay: as above; type: cell-based; conditions: F7; Saccharomyces cerevisiae F-7; read-out: Minimum growth-inhibition concentration
Pyricularia oryzae = assay: microbe, parasite or virus in culture; type: cell-based; conditions: read-out: Minimum growth-inhibition concentration
Aspergillus niger F-16 = assay: Agar dilution assay, minimum growth inhibition concentration; type: cell-based; conditions: F16; Aspergillus niger F-16; read-out: Minimum growth-inhibition concentration

## CCCCCc1cc2ccc3c(O)c4c(cc3c2c(O)c1C(=O)O)C(C)(C)c1cc(O)cc(O)c1C4=O [Benastatin A, benastatin A]
Glutathione transferase
  IC50: 4.99 µM
[1]
  IC50: 7.7 µg/mL (≈ 15.4 µM)
[2]
  IC50: 7.3 µg/mL (≈ 14.6 µM)
mouse
  Toxicity: No toxicity was observed
[3]
  MIC: 3.12 µg/mL (≈ 6.23 µM)
[4]
  MIC: 3.12 µg/mL (≈ 6.23 µM)
Cochliobolus miyabeanus
  MIC: > 25 µg/mL
[5]
  MIC: 3.12 µg/mL (≈ 6.23 µM)
[6]
  MIC: 50 µg/mL (≈ 99.9 µM)
Micrococcus luteus FDA16
  MIC: 3.12 µg/mL (≈ 6.23 µM)
[7]
  MIC: 3.12 µg/mL (≈ 6.23 µM)
[8]
  MIC: 3.12 µg/mL (≈ 6.23 µM)
[9]
  MIC: 3.12 µg/mL (≈ 6.23 µM)
[10]
  MIC: 3.12 µg/mL (≈ 6.23 µM)
Escherichia coli NIHJ
  MIC: 100 µg/mL (≈ 200 µM)
[11]
  MIC: > 50 µg/mL
Salmonella typhi T-63
  MIC: > 50 µg/mL
Proteus rettgeri GN311
  MIC: 50 µg/mL (≈ 99.9 µM)
[12]
  MIC: > 50 µg/mL
[13]
  MIC: > 50 µg/mL
[14]
  MIC: 50 µg/mL (≈ 99.9 µM)
Candida tropicalis F-1
  MIC: > 50 µg/mL
[15]
  MIC: > 100 µg/mL
Pyricularia oryzae
  MIC: 50 µg/mL (≈ 99.9 µM)
Aspergillus niger F-16
  MIC: > 50 µg/mL
Solubility; dimethyl sulfoxide, methanol, acetone, ethyl acetate
  Solubility in organic solvents: soluble
Solubility; water
  Solubility in water: insoluble
